In brackets after ≈: the same amount, converted by molar mass. Where two headings read alike, the source gives them in different places.
Experiments:
[1] = background art; cited from earlier work
[2] = Adhesiveness and agglutination test (Carr's index from bulk and tapped density); assay type: physicochemical
Method: The bulk density and tapped density of revaprazan powder and the surface-modified solid dispersions prepared according to Examples 3 and 6 were measured and their Carr's indexes were obtained in order to measure flowability thereof. About 3 g of a solid dispersion was carefully added to a plastic measuring cylinder and the volume thereof was measured to obtain the bulk density. And then, this was subjected to tapping 3,000 times using a tapped density meter to measure the volume and the tapped density was obtained. From the obtained bulk density and tapped density, Carr's index was calculated in order to evaluate flowability.

[3] = Solubility of revaprazan-containing solid dispersion in purified water; assay type: physicochemical; conditions: thermodynamic from solid, 25° C., solid dispersion containing 1 g revaprazan in 50 ml, stirred up to 6 hours, UV 270 nm
Method: Solubility of a revaprazan-containing solid dispersion was measured in purified water. A solid dispersion containing 1 g of revaprazan was added to a beaker containing 50 ml of purified water, which was then strongly stirred using a magnetic stirrer at 25° C. in a water bath for 6 hours. After 1, 2, and 6 hours, each sample was collected and filtered using a 0.45 μm filter. The filtrate was diluted with methanol having such an amount that absorbance of the filtrate is in the range from 0.2 to 1.0. Then, absorbance of the diluted filtrate was measured at 270 nm using a UV spectrophotometer (Agilent 8453, Agilent technologies, USA). From the obtained absorbance value, concentrations of revaprazan were obtained using a standard curve.
About 20 mg of revaprazan standard was dissolved in methanol until the total volume of the solution reached 10 ml. 1 ml of the resultant solution was added to a 100 ml flask and then purified water was added thereto to obtain a standard stock solution. The standard stock solution was diluted with purified water to obtain 2 μg/ml, 5 μg/ml, 8 μg/ml, and 10 μg/ml of standard solution. Each absorbance of the standard solutions was measured at an absorption maximum wavelength of 270 nm to obtain a standard curve. The standard curve was moderately linear passing through almost (0.0) (coefficient of correlation r^2>0.98).

- Carr's index [2]: ≥ 40%
- Carr's index ([2]; from bulk density and tapped density (3,000 taps), flowability): 41.2
- solubility [3]: 173 µg/mL (≈ 477 µM)
Structure (SMILES): Cc1nc(Nc2ccc(F)cc2)nc(N2CCc3ccccc3C2C)c1C (stereo not shown) [Revaprazan powder, 5,6-dimethyl-2-(4-fluorophenylamino)-4-(1-methyl-1,2,3,4-tetrahydroisoquinolin-2-yl)pyrimidine]
- water-solubility [1]: less than 0.2 mg/mL

Reference: patent US8663658B2, “Revaprazan-containing solid dispersion and process for the preparation thereof” (Yuhan Corporation, priority 2006, dated 2014)
